# System: MMP's (particularly MMP-9) in chronic wound fluid
# Settings: inhibitor 2 mM, 37° C., 24 hours; % of untreated control remaining
# Protocol: Collagenase sensitivity was identified as clear bands against a dark background in zymograms and could be quantitated by densitometric analysis. […] Lanes 1-6 are chronic wound fluid samples from six different patients with 500 ng of total protein loaded per sample. […] Electrophoresis was performed at 4° C. under Laemmli conditions. […] After incubation the gels were stained appropriately and protease activity was visualised as clear (unstained) bands.
smiles,measurement,value
C=C(C)C(=O)NCCCC(O)(P(=O)(O)O)P(=O)(O)O [alendronate-methacrylate conjugate],"type I collagen degradation relative to that seen in the untreated control (densitometry, FIG. 4)",30%-40%
